Biological target: T1, glucocorticoid receptor (GR) (Mus musculus, UniProt P06537)
T1 construct: RNA transcripts were then extracted from mouse ears; from tissue; host or cells: ear skin of Balb/C mice (in vivo topical treatment)
T1 sequence (P06537 1-792): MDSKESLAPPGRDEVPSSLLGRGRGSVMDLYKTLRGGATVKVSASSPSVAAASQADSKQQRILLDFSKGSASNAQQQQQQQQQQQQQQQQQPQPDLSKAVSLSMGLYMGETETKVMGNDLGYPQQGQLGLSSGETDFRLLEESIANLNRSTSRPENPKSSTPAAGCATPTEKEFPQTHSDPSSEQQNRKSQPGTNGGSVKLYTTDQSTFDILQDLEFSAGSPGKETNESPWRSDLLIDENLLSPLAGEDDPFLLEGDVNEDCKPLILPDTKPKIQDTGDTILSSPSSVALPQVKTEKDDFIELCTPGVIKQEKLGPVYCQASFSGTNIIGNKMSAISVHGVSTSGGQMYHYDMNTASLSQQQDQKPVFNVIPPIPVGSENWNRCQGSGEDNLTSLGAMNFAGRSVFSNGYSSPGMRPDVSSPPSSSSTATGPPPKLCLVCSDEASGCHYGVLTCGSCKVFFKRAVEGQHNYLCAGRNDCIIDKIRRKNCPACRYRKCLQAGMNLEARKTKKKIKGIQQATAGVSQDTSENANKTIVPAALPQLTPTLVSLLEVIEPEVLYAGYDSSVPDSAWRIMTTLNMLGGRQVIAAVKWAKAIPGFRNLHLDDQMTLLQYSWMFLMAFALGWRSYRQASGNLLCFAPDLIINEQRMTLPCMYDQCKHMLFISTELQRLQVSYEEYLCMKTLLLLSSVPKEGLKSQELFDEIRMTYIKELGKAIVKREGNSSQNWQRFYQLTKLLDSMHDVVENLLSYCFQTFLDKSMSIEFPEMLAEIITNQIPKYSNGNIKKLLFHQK
Experiment: GR transcriptional functions in mouse ears after topical 18-hour treatment (q-RT-PCR)
Assay type: in vivo
Method: RNA transcripts were then extracted from mouse ears and the transcripts of 4 genes were analyzed by q-RT-PCR: • (i) the directly GR-transactivated gene of the mTOR inhibitor REDD1, • (ii) the GR-directly transrepressed gene of keratin 5 (K5) and • (iii) the GR-indirectly “tethered” transrepressed genes of interleukin-1β (IL-1β) and interleukin-6 (IL-6), both being activated in presence of 12-O-tetradecanoylphorbol-13-acetate (TPA).

[1] = topical 18 h, 1 nmole/cm^2, q-RT-PCR, vs Vehicle

Q: `COc1ccc(F)cc1C(C)(C)CC(O)(CNc1ccc2c(c1)COC2=O)C(F)(F)F` (racemic) [CpdX, 5-[4-(5-fluoro-2-methoxyphenyl)-2-hydroxy-4-methyl-2-(trifluoromethyl)pentylamino]-isobenzofuran-1(3H)-one] was tested. Which “GR functions induced (direct transactivation, direct transrepression, indirect tethered transrepression)” value (in vivo transcriptional analyses, 1 nmole/cm^2) did it give?
A: Its value is “selectively exhibits an indirect tethered transrepression activity”.

Q: What about the “direct transrepression of the K5 gene (relative RNA expression)” value [1] of the same molecule?
A: Its value is “unchanged”.

Q: And the “transactivation of the REDD1 gene (relative RNA expression)” value [1]?
A: Its value is “unchanged”.
